# Numbered stars: 1 amine (or outer) side, 2 acyl side, 3 side chain; on linkers, the order of the positions; unused ones are H or OH. Bridge positions count the residues as written; N and C are the ends. Square brackets hold non-standard residues; d marks the D form. Peptide text beside a SMILES is read from it. * marks the point of attachment. dLeu(3R-OH) = CC(C)[C@@H](O[*:3])[C@@H](N[*:1])C(=O)[*:2]; Gln(3S,4R-Me2) = C[C@H]([C@H](N)C(=O)O)[C@@H](C)C(N)=O; dTyr(βR-OMe) = CO[C@H](c1ccc(O)cc1)[C@@H](N)C(=O)O; Pip(4S-Cl) = O=C(O)[C@@H]1C[C@@H](Cl)CCN1; X6 = CCC(C)/C=C(C)/C=C\C(O)C(C)(O)C(=O)*; Abu(3R-NH2) = C[C@@H](N)[C@H](N)C(=O)O; NMeT = CN[C@H](C(=O)O)[C@@H](C)O
# Details: PAMPA
row,Molecule,passive permeability (in words)
1,tentoxin,measurable permeability
2,destruxin A,moderate permeability
3,CC[C@@H](C)[C@@H]1NC(=O)CNC(=O)[C@@H](C)N(C)C(=O)[C@H](C(C)C)NC(=O)[C@H]([C@@H](C)O)N(C)C(=O)[C@H](C(C)C)NC(=O)[C@H]([C@@H](C)O)N(C)C(=O)[C@H](C(C)C)NC(=O)CNC(=O)[C@@H](Cc2ccccc2)N(C)C(=O)[C@H](C(C)C)NC(=O)[C@H](CO)NC(=O)[C@H](C(C)C)N(C)C(=O)[C@H](CO)N(C)C1=O [verrucamide B],poor passive permeability
4,"CCC(C)/C=C(C)/C=C\C(O)C(C)(O)C(=O)NCC(=O)N[C@H](C(=O)N[C@H](C(=O)N[C@H](C(=O)N[C@H]1C(=O)N[C@H](COC)C(=O)NCC(=O)N[C@@H](C)C(=O)N(C)[C@@H]([C@@H](C)O)C(=O)N[C@H]([C@H](OC)c2ccc(O)cc2)C(=O)N2CC[C@H](Cl)C[C@H]2C(=O)O[C@@H]1C(C)C)[C@@H](C)[C@@H](C)C(N)=O)[C@@H](C)N)[C@@H](C)O (stereo partly drawn) [mirabamide C] (X6-GT[Abu(3R-NH2)][Gln(3S,4R-Me2)][dLeu(3R-OH)][dS](Me)GA[NMeT][dTyr(βR-OMe)][Pip(4S-Cl)]; ester 5-C)",poor passive permeability
5,destruxin B,moderate permeability

# Same assay, conditions: PAMPA, 16 h
row,Molecule,logPe
1,CC(C)[C@H]1C(=O)N(C)[C@@H](C)C(=O)NCCC[C@H](NC(=O)/C=C/C=C/C=O)C(=O)N1C [sclerotiotide F],below the PAMPA assay’s detection limit
2,CC(C)[C@H]1C(=O)O[C@H](C(C)C)C(=O)N(C)[C@@H](C(C)C)C(=O)O[C@H](C(C)C)C(=O)N(C)[C@@H](C(C)C)C(=O)O[C@H](C(C)C)C(=O)N1C [Enniatin B],−4.7
3,CC[C@H](C)[C@@H]1NC(=O)c2csc(n2)[C@@H](C)NC(=O)[C@H]2N=C(O[C@@H]2C)[C@H](C(C)C)NC(=O)c2csc(n2)[C@@H](Cc2ccccc2)NC(=O)[C@H]2N=C1O[C@@H]2C [Patellamide C],−4.7
4,destruxin B,−5.29
5,destruxin E2 chlorohydrin,−7.35
6,desmethyldestruxin B,−6.67
